These results are taken from PubChem BioAssay AID218 (DTP/NCI, 2004).

This test relates to C57BL/6 mice, Adenocarcinoma 755 sc, tumor weight T/C. Put plainly: NCI In Vivo Anticancer Drug Screen. Data for tumor model Adenocarcinoma 755 (subcutaneous) in C57BL/6 mice. Conditions: endpoint: mean tumor weight, schedule: Q02DX006 (ip), vehicle: saline, higher = larger tumour. The method, then:
The antitumor activity of compounds was measured in mice bearing transplantable tumors. Survival or tumor size were measured and the results are expressed as the measurement made in the treated group (T) divided by the measurement made in the vehicle treated control group (C). The tumor model used in this assay is Adenocarcinoma 755 (subcutaneous) in C57BL/6 mice

Broadly, the T/C is the ratio of treated to control.

Consider `CC[N+](CC)(CC)CCO`, for which the T/C was 51 % of control (dose: 5.0 mg/kg/injection), 25 % of control (dose: 10.0 mg/kg/injection) and 33 % of control (dose: 15.0 mg/kg/injection).
